Here are results for 24 compounds from PubChem BioAssay AID248 (DTP/NCI, 2004).

This experiment concerns L1210 leukemia ip in BDF1 mice, survival T/C. Kind of experiment: NCI In Vivo Anticancer Drug Screen. Data for tumor model L1210 Leukemia (intraperitoneal) in B6D2F1 (BDF1) mice. As to conditions: endpoint: mean survival time, higher = longer survival. A digest of the protocol:
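Value reflects the ratio of survival in compound-treated mice to survival in vehicle-treated controls, with both groups carrying the same transplanted tumor.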

Setting [1] is: dose: 100.0 mg/kg/injection, schedule: Q01DX001 (ip), vehicle: saline.
The mark [2] stands for this setting: dose: 200.0 mg/kg/injection, schedule: Q01DX001 (ip), vehicle: saline.
Setting [3] is: dose: 400.0 mg/kg/injection, schedule: Q01DX001 (ip), vehicle: saline.
[4] abbreviates: dose: 100.0 mg/kg/injection, schedule: Q04DX002 (ip), vehicle: Klucel (hydroxypropylcellulose) (HPC).
[5] abbreviates: dose: 200.0 mg/kg/injection, schedule: Q04DX002 (ip), vehicle: Klucel (hydroxypropylcellulose) (HPC).
Setting [6] is: dose: 400.0 mg/kg/injection, schedule: Q04DX002 (ip), vehicle: Klucel (hydroxypropylcellulose) (HPC).
The mark [7] stands for this setting: dose: 100.0 mg/kg/injection, schedule: Q04DX003 (ip), vehicle: saline.
The mark [8] stands for this setting: dose: 200.0 mg/kg/injection, schedule: Q04DX003 (ip), vehicle: saline.
[9] abbreviates: dose: 400.0 mg/kg/injection, schedule: Q04DX003 (ip), vehicle: saline.
[10] abbreviates: dose: 100.0 mg/kg/injection, schedule: Q01DX001 (ip), vehicle: Klucel (hydroxypropylcellulose) (HPC).
Setting [11] is: dose: 200.0 mg/kg/injection, schedule: Q01DX001 (ip), vehicle: Klucel (hydroxypropylcellulose) (HPC).
Setting [12] is: dose: 400.0 mg/kg/injection, schedule: Q01DX001 (ip), vehicle: Klucel (hydroxypropylcellulose) (HPC).
[13] abbreviates: dose: 100.0 mg/kg/injection, schedule: Q01DX009 (ip), vehicle: Klucel (hydroxypropylcellulose) (HPC).
[14] abbreviates: dose: 200.0 mg/kg/injection, schedule: Q01DX009 (ip), vehicle: Klucel (hydroxypropylcellulose) (HPC).
Setting [15] is: dose: 400.0 mg/kg/injection, schedule: Q01DX009 (ip), vehicle: Klucel (hydroxypropylcellulose) (HPC).
Setting [16] is: dose: 100.0 mg/kg/injection, schedule: Q04DX003 (ip), vehicle: Klucel (hydroxypropylcellulose) (HPC).
Where [17] appears, read: dose: 200.0 mg/kg/injection, schedule: Q04DX003 (ip), vehicle: Klucel (hydroxypropylcellulose) (HPC).
[18] abbreviates: dose: 400.0 mg/kg/injection, schedule: Q04DX003 (ip), vehicle: Klucel (hydroxypropylcellulose) (HPC).
The mark [19] stands for this setting: dose: 100.0 mg/kg/injection, schedule: Q04DX003 (ip), vehicle: saline with Tween-80.
The mark [20] stands for this setting: dose: 200.0 mg/kg/injection, schedule: Q04DX003 (ip), vehicle: saline with Tween-80.
Setting [21] is: dose: 100.0 mg/kg/injection, schedule: Q01DX009 (ip), vehicle: saline with Tween-80.
The mark [22] stands for this setting: dose: 200.0 mg/kg/injection, schedule: Q01DX009 (ip), vehicle: saline with Tween-80.
The mark [23] stands for this setting: dose: 400.0 mg/kg/injection, schedule: Q01DX009 (ip), vehicle: saline with Tween-80.

“And” between values parts separate entries of the source, which are not always exact repeats. Identical values can stand only once. Inconclusive results and toxic doses are left out.

As to `CC1=CC(=O)C(=O)C=C1O`, the T/C was 103 % of control (dose: 50.0 mg/kg/injection, schedule: Q01DX001 (ip), vehicle: water); 113 % of control (dose: 100.0 mg/kg/injection, schedule: Q01DX001 (ip), vehicle: water); 108 % of control (dose: 200.0 mg/kg/injection, schedule: Q01DX001 (ip), vehicle: water); 110 % of control (dose: 400.0 mg/kg/injection, schedule: Q01DX001 (ip), vehicle: water).
For `O=C(OCC1OC(c2ccccc2)OC1C1OC(c2ccccc2)OC1COC(=O)c1ccccc1)c1ccccc1` (configuration not stated), the T/C under setting [1] is 103 % of control, the T/C under setting [2] was 110 % of control and the T/C under setting [3] is 110 % of control.
As for `CC(C)(C)NC(=O)C1C(c2ccccc2)C1c1ccccc1` (configuration not stated), the T/C is 90 % of control under setting [4], 113 % of control under setting [5] and 100 % of control under setting [6].
Consider `CCCC/C=C/CCl`, for which the T/C was 88 % of control under setting [1]; 102 % of control under setting [7]; 91 % of control under setting [2]; 95 % of control under setting [8]; 90 % of control under setting [3]; 98 % of control under setting [9].
Turning to `Nc1nc(SCc2ccncc2)c2[nH]cnc2n1`, where the note is “dose: 178.0 mg/kg/injection, schedule: Q01DX001 (ip), vehicle: saline”, the T/C is 118 % of control.
As to `COc1ccc2c(c1)CCC1=C(C)C(=O)CCC12C` (configuration not stated), the T/C is, setting by setting: under setting [10], 102 % of control; under setting [11], 98 % of control; under setting [12], 98 % of control.
As to `CC1CC(NC(=S)NC(=O)c2ccc(Cl)cc2Cl)CC(C)(C)C1` (configuration not stated), the T/C is, setting by setting: under setting [13], 91 % of control; under setting [14], 96 % of control; under setting [15], 91 % of control.
Regarding `CC(C)(Cl)CNC(=O)c1ccc([N+](=O)[O-])cc1`, the T/C by setting is: under setting [13], 92 % of control; under setting [16], 107 % of control; under setting [14], 96 % of control; under setting [17], 94 % of control; under setting [15], 91 % of control; under setting [18], 92 % of control.
In the case of `c1ccc(CC2CCCCCC2)cc1`, the T/C under setting [13] was 96 % of control; the T/C under setting [16] is 100 % of control; the T/C (dose: 150.0 mg/kg/injection, schedule: Q01DX009 (ip), vehicle: Klucel (hydroxypropylcellulose) (HPC)) is 101 % of control; the T/C under setting [14] was 102 % of control; the T/C under setting [17] is 91 % of control; the T/C under setting [18] is 96 % of control.
As for `CC(=O)C1=C(C)NC(C)=C(C(C)=O)C1C`, the T/C by setting is: (dose: 55.0 mg/kg/injection, schedule: Q01DX Z (ip), vehicle: saline) 97 % of control; (dose: 83.0 mg/kg/injection, schedule: Q01DX Z (ip), vehicle: saline) 95 % of control; (dose: 125.0 mg/kg/injection, schedule: Q01DX Z (ip), vehicle: saline) 100 % of control.
In the case of `O=C(NC(c1ccccc1)C(NC(=O)c1ccccc1)c1ccccc1)c1ccccc1` (configuration not stated), the T/C is 99 % of control under setting [10], 99 % of control under setting [11] and 97 % of control under setting [12].
For `Cc1nnc(NS(=O)(=O)c2ccc(N=Nc3c(N)[nH]c(=S)[nH]c3=O)cc2)s1`, the T/C under setting [1] is 100 % of control, the T/C under setting [2] was 100 % of control and the T/C under setting [3] was 100 % of control.
For `CC(=O)Nc1nc(-c2ccccc2)c(CCC=O)c(=O)[nH]1`, the T/C was 93 % of control (dose: 50.0 mg/kg/injection, schedule: Q01DX001 (ip), vehicle: Klucel (hydroxypropylcellulose) (HPC)); 96 % of control under setting [10]; 104 % of control under setting [11].
As to `CC1(C)N=C(N)N=C(N)N1c1ccc(OCC(=O)Nc2cccc(S(=O)(=O)F)c2)cc1`, the T/C is, setting by setting: under setting [1], 105 % of control; under setting [2], 91 % of control; under setting [3], 107 % of control.
Take `CC(=O)NCc1cccc[n+]1[O-]`: the T/C is 110 % of control (dose: 25.0 mg/kg/injection, schedule: Q04DX002 (ip), vehicle: saline); 105 % of control (dose: 50.0 mg/kg/injection, schedule: Q04DX002 (ip), vehicle: saline); 101 % of control and 105 % of control (dose: 100.0 mg/kg/injection, schedule: Q04DX002 (ip), vehicle: saline).
Take `Cn1cnc([N+](=O)[O-])c1Sc1ncnc2c1ncn2C1OC(CO)C(O)C1O` (configuration not stated): the T/C (dose: 18.0 mg/kg/injection, schedule: Q01DX009 (ip), vehicle: saline) is 100 % of control; the T/C (dose: 35.0 mg/kg/injection, schedule: Q01DX009 (ip), vehicle: saline) is 108 % of control; the T/C (dose: 75.0 mg/kg/injection, schedule: Q04DX003 (ip), vehicle: Klucel (hydroxypropylcellulose) (HPC)) is 121 % of control; the T/C (dose: 110.0 mg/kg/injection, schedule: Q01DX009 (ip), vehicle: saline) was 152 % of control; the T/C (dose: 165.0 mg/kg/injection, schedule: Q01DX009 (ip), vehicle: saline) is 150 % of control; the T/C (dose: 176.0 mg/kg/injection, schedule: Q01DX009 (ip), vehicle: other) was 164 % of control. The T/C (dose: 250.0 mg/kg/injection, schedule: Q01DX009 (ip), vehicle: saline) is 154 % of control and the T/C (dose: 300.0 mg/kg/injection, schedule: Q04DX003 (ip), vehicle: Klucel (hydroxypropylcellulose) (HPC)) was 156 % of control.
As for `O=C1CCSCCN1`, the T/C reads like this: (dose: 100.0 mg/kg/injection, schedule: Q01DX009 (ip), vehicle: saline) 98 % of control; under setting [7], 97 % of control; (dose: 200.0 mg/kg/injection, schedule: Q01DX009 (ip), vehicle: saline) 103 % of control; under setting [8], 97 % of control; (dose: 400.0 mg/kg/injection, schedule: Q01DX009 (ip), vehicle: saline) 101 % of control; under setting [9], 95 % of control.
For `O=c1c(O)c(O)c1=O`, the T/C reads like this: (dose: 75.0 mg/kg/injection, schedule: Q01DX001 (ip), vehicle: carboxymethylcellulose (CMC)) 89 % of control; (dose: 150.0 mg/kg/injection, schedule: Q01DX001 (ip), vehicle: carboxymethylcellulose (CMC)) 98 % of control.
For `CCOC(=O)c1cnc(NN)nc1Nc1ccccc1Cl`, the T/C runs as follows: under setting [19], 92 % of control; under setting [20], 96 % of control.
As for `O=C1CCN(CCN2CCC(=O)N(Cc3ccccc3)C2=S)C(=S)N1Cc1ccccc1`, the T/C is 100 % of control under setting [4], 107 % of control under setting [5] and 96 % of control under setting [6].
`O=C(NCCCl)N1C(=O)NC(=O)C1(c1ccccc1)c1ccccc1`: the T/C runs as follows: under setting [21], 96 % of control; under setting [7], 88 % of control; under setting [22], 98 % of control; under setting [8], 91 % of control; under setting [23], 96 % of control; under setting [9], 98 % of control.
Turning to `CC(=O)Nc1ccc(OCCOC(=O)Nc2c(C)cccc2C)cc1`, the T/C is 87 % of control under setting [21], 92 % of control under setting [22] and 94 % of control under setting [23].
For the compound `C(=N\Nc1ccccc1)/c1cc2c3c(c1)CCCN3CCC2`, the T/C (dose: 100.0 mg/kg/injection, schedule: Q01DX009 (ip), vehicle: gum acacia) was 94 % of control; the T/C (dose: 200.0 mg/kg/injection, schedule: Q01DX009 (ip), vehicle: gum acacia) was 91 % of control; the T/C (dose: 400.0 mg/kg/injection, schedule: Q01DX009 (ip), vehicle: gum acacia) was 94 % of control.
Regarding `CC(=O)Nc1ccc(/C=C/C(=O)c2ccc([N+](=O)[O-])cc2)cc1`, the T/C is 94 % of control under setting [21]; 91 % of control under setting [19]; 94 % of control under setting [22]; 94 % of control under setting [20]; 94 % of control under setting [23]; 90 % of control (dose: 400.0 mg/kg/injection, schedule: Q04DX003 (ip), vehicle: saline with Tween-80).
